Data on two molecules can be found in patent US11312705B2, “Heteroaryl[4,3-C]pyrimidine-5-amine derivative, preparation method therefor, and medical uses thereof” (Jiangsu Hengrui Medicine Co., Ltd., priority 2017, dated 2022).

The target in this test is adenosine A2b receptor (A2bR) (Homo sapiens (Human), UniProt P29275). Nature of the test: Inhibition of adenosine A2b receptor cAMP signaling pathway (HTRF cAMP, CHO-K1/A2bR cells). It counts as cell-based. The following applies: Table 3; for IC50: CHO-K1/A2bR cells, ethyl carbazole 1 μM, cAMP HTRF. Put shortly: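 CHO-K1 cells expressing human A2bR were preincubated with compound (0-100000 nM final) for 30 min at room temperature in HEPES/BSA buffer with rolipram and adenosine deaminase. They were then stimulated with 1 μM […] for 30 min. Intracellular cAMP was measured by HTRF after 1 h detection.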
Chain of adenosine A2b receptor (A2bR) (P29275 whole entry): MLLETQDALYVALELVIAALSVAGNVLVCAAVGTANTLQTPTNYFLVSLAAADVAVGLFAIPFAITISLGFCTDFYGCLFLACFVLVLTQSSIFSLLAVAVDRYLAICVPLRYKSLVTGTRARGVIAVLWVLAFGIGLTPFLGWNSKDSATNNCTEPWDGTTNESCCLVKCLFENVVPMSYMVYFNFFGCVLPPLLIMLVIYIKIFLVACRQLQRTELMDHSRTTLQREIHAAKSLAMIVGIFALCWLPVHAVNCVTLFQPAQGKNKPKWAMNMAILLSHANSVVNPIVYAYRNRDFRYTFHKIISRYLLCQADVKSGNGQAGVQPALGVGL

As usually defined, the IC50 is the concentration that gives 50% inhibition. High values mean a need for much substance, low ones inhibition by little substance. On to `Cc1cc(-c2c(-c3ccc(F)cc3F)nc(N)n3cnnc23)cc(C(F)(F)F)n1` [Example 18, 7-(2,4-Difluorophenyl)-8-(2-methyl-6-(trifluoromethyl)pyridin-4-yl)-[1,2,4]triazolo[4,3-c]pyrimidin-5-amine], for which 793 nM corresponded to half-maximal inhibition (IC50).

Take `Cc1cc(-c2c(-c3ccc(F)cc3F)nc(N)n3cnnc23)cc(C(F)F)n1` [Example 20, 8-(2-(Difluoromethyl)-6-methylpyridin-4-yl)-7-(2,4-difluorophenyl)-[1,2,4]triazolo[4,3-c]pyrimidin-5-amine]: the IC50 is 522 nM. For the same molecule, the “IC50 ratio (A2bR/A2aR)” value (selectivity A2bR over A2aR) is reported as 224.
